Reference: ChEMBL document CHEMBL1201862, “PubChem BioAssay data set” (2004)
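Assay format: 96-well plates, 48-hour exposure. GI50 marks 50% less growth.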 Activity calls are given as the source filed them. No stated cut-off is given here; in the data, active = GI50 up to about 1.1 µM and inactive = higher.

How the values were obtained:
Assay in all cases: NCI anticancer screen, dose series, 48 h
[1] = system: NCI-H226
[2] = system: HCT-15
[3] = system: SK-MEL-2
[4] = system: SR
[5] = system: TK-10
[6] = system: UACC-62
[7] = system: SF-268
[8] = system: MOLT-4
[9] = system: OVCAR-3
[10] = system: SK-OV-3
[11] = system: SK-MEL-5
[12] = system: K562
[13] = system: UO-31
[14] = system: EKVX
[15] = system: CCRF-CEM
[16] = system: U-251
[17] = system: OVCAR-8
[18] = system: SN12C
[19] = system: NCI-H23

Compound	GI50 [1]	GI50 [2]	GI50 [3]	GI50 [4]	GI50 [5]	GI50 [6]	GI50 [7]	GI50 [8]	GI50 [9]	GI50 [10]	GI50 [11]	GI50 [12]	GI50 [13]	GI50 [14]	GI50 [15]	GI50 [16]	GI50 [17]	GI50 [18]	GI50 [19]
C/C(=N\NC(=S)NC(C)C)c1nc2cccnc2[nH]1	9.25 µM (inactive)	11.3 µM	18.7 µM (inactive)	11.7 µM (inactive)	21.3 µM (inactive)	29.8 µM (inactive)	14.8 µM (inactive)	9.95 µM (inactive)	6.62 µM (inactive)	12.7 µM (inactive)	13.1 µM (inactive)	4.48 µM (inactive)	3.78 µM (inactive)	13.5 µM (inactive)	2.88 µM (inactive)	21.3 µM (inactive)	7.98 µM (inactive)	> 56.5 µM (inactive)	–
c1ccc2c(c1)CCc1c(-c3n[nH]c4c3CCc3ccccc3-4)n[nH]c1-2	> 100 µM (inactive)	> 100 µM	> 100 µM (inactive)	46.9 µM (inactive)	> 100 µM (inactive)	> 100 µM (inactive)	> 100 µM (inactive)	87.9 µM (inactive)	> 100 µM (inactive)	> 100 µM (inactive)	> 100 µM (inactive)	27.9 µM (inactive)	> 100 µM (inactive)	> 100 µM (inactive)	> 100 µM (inactive)	> 100 µM (inactive)	> 100 µM (inactive)	> 100 µM (inactive)	> 100 µM (inactive)
CCOC(=O)C1=C(C)NC(=O)NC1c1ccc(OC)cc1OC (configuration not stated)	> 100 µM (inactive)	> 100 µM	> 100 µM (inactive)	> 100 µM (inactive)	> 100 µM (inactive)	> 100 µM (inactive)	> 100 µM (inactive)	> 100 µM (inactive)	> 100 µM (inactive)	> 100 µM (inactive)	> 100 µM (inactive)	> 100 µM (inactive)	> 100 µM (inactive)	> 100 µM (inactive)	84.5 µM (inactive)	52.6 µM (inactive)	> 100 µM (inactive)	> 100 µM (inactive)	> 100 µM (inactive)
Oc1cc2cc(-c3ccccc3)[nH]c2c2ccccc12	> 100 µM (inactive)	27.1 µM	20.3 µM (inactive)	> 57 µM (inactive)	> 100 µM (inactive)	15.2 µM (inactive)	47.1 µM (inactive)	39.9 µM (inactive)	16.3 µM (inactive)	> 77.8 µM (inactive)	14.1 µM (inactive)	26.7 µM (inactive)	19.2 µM (inactive)	> 48.9 µM (inactive)	28.6 µM (inactive)	32.1 µM (inactive)	32.7 µM (inactive)	28.8 µM (inactive)	15 µM (inactive)
CCC12C=CCN3CC[C@]4(C(=C(C(=O)OC)[C@@H]1Nc1ccn(C5OC(COC(C)=O)C(OC(C)=O)C5OC(C)=O)c(=O)n1)Nc1ccccc14)C32 (some centres not stated)	4.47 µM (inactive)	3.54 µM	2.39 µM (inactive)	3.94 µM (inactive)	4.93 µM (inactive)	3.47 µM (inactive)	5.55 µM (inactive)	6.58 µM (inactive)	4.37 µM (inactive)	4.93 µM (inactive)	4.5 µM (inactive)	5.08 µM (inactive)	4.23 µM (inactive)	5.81 µM (inactive)	4.59 µM (inactive)	4.27 µM (inactive)	5.16 µM (inactive)	4.39 µM (inactive)	1.62 µM (inactive)
O=C(/C=C/c1ccc[nH]1)c1ccccc1	> 100 µM (inactive)	> 100 µM	> 100 µM (inactive)	> 100 µM (inactive)	> 100 µM (inactive)	> 100 µM (inactive)	> 100 µM (inactive)	> 100 µM (inactive)	> 100 µM (inactive)	> 100 µM (inactive)	> 100 µM (inactive)	> 100 µM (inactive)	> 100 µM (inactive)	–	> 100 µM (inactive)	> 100 µM (inactive)	> 100 µM (inactive)	> 100 µM (inactive)	> 100 µM (inactive)
